Assays:
[1] = system: IPOHE (Morningglory, Ivyleaf); experiment: Postemergence herbicidal evaluation; format: in vivo, Ipomoea hederacea; conditions: postemergence
Method in brief: (§1)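 Herbicidal effect was judged by eye on a 0–9 scale covering stand, vigor, deformity, size and chlorosis, compared with controls, four to five weeks after seedlings about two weeks old were sprayed (40 psi, ~0.0156–0.500 kg/ha).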

[2] = system: IPOHE (Morningglory, Ivyleaf); experiment: Preemergence herbicidal evaluation; format: in vivo, Ipomoea hederacea; conditions: rated 4-5 weeks after treatment
Method in brief: (§2)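 Test compound, dissolved in aqueous acetone, was sprayed over planted soil cups at an equivalent of about 0.0156 to 0.500 kg/ha; seeds had been mixed with potting soil. Greenhouse growth followed, with visual 0-9 scoring of injury at four to five weeks.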

[3] = system: CHEAL (Lambsquarters, Common); experiment: Postemergence herbicidal evaluation; format: in vivo, Chenopodium album; conditions: postemergence
Method in brief: as §1

MOOVA (Monochoria) = experiment: Preemergence weed control under flooded paddy conditions; format: in vivo, Monochoria vaginalis; conditions: rated 3-4 weeks after treatment
Method in brief: (§3)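 Seeds or propagules sown in top 0.5 cm of silt loam soil, flooded 1.5 to 3 cm above surface throughout. Compound in 50/50 v/v aqueous/acetone pipetted into flood water at about 0.0313 to 0.500 kg/ha. Visual 0-9 rating versus control after three to four weeks in greenhouse.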

ABUTH (Velvetleaf) = experiment: Preemergence herbicidal evaluation; format: in vivo, Abutilon theophrasti; conditions: rated 4-5 weeks after treatment
Method in brief: as §2

CASOB (Sicklepod) [4] = experiment: Postemergence herbicidal evaluation; format: in vivo, Cassia obtusifolia; conditions: postemergence
Method in brief: as §1

AMBEL (Ragweed, Common) [5] = experiment: Postemergence herbicidal evaluation; format: in vivo, Ambrosia artemisifolia; conditions: postemergence
Method in brief: as §1

[6] = system: TRZAWR (Wheat, Winter, cv Riband); experiment: Postemergence herbicidal evaluation; format: in vivo, Triticum aestivum; conditions: postemergence
Method in brief: as §1

[7] = system: GLXMAW (Soybean, Williams); experiment: Postemergence herbicidal evaluation; format: in vivo, Glycine max, (L.) Merr. cv Williams; conditions: postemergence
Method in brief: as §1

ORYSAT (Rice, Tebonnet) = experiment: Preemergence herbicidal evaluation; format: in vivo, Oryza sativa, (L.) Tebonnet; conditions: rated 4-5 weeks after treatment
Method in brief: as §2

[8] = system: SAGPY (Arrowhead (Pygmaea)); experiment: Preemergence weed control under flooded paddy conditions; format: in vivo, Sagittaria pygmaea; conditions: rated 3-4 weeks after treatment
Method in brief: as §3

AMBEL (Ragweed, Common) [9] = experiment: Preemergence herbicidal evaluation; format: in vivo, Ambrosia artemisifolia; conditions: rated 4-5 weeks after treatment
Method in brief: as §2

[10] = system: CHEAL (Lambsquarters, Common); experiment: Preemergence herbicidal evaluation; format: in vivo, Chenopodium album; conditions: rated 4-5 weeks after treatment
Method in brief: as §2

[11] = system: GLXMAW (Soybean, Williams); experiment: Preemergence herbicidal evaluation; format: in vivo, Glycine max, (L.) Merr. cv Williams; conditions: rated 4-5 weeks after treatment
Method in brief: as §2

ECHCG (Barnyardgrass) = experiment: Postemergence herbicidal evaluation; format: in vivo, Echinochloa crus-galli; conditions: postemergence
Method in brief: as §1

CASOB (Sicklepod) [12] = experiment: Preemergence herbicidal evaluation; format: in vivo, Cassia obtusifolia; conditions: rated 4-5 weeks after treatment
Method in brief: as §2

Q: What does the source list for `Cc1ccccc1CN1C(=O)CSC1=Nc1cc(-n2c(=O)cc(C(F)(F)F)n(C)c2=O)c(F)cc1Cl` [Compound 129, 3-{4-Chloro-2-fluoro-5-{[3-(o-methylbenzyl)-4-oxo-2-thiazolidinylidene]amino}phenyl}-1-methyl-6-(trifluoromethyl)-2,4 (1H,3H)-pyrimidinedione]?
A: Herbicidal rating IPOHE ([1]; rate 0.0156 kg/ha): 9.0; Herbicidal rating IPOHE ([1]; rate 0.0313 kg/ha): 9.0; Herbicidal rating IPOHE ([1]; rate 0.0625 kg/ha): 9.0; Preemergence herbicidal rating IPOHE ([2]; rate 0.0156 kg/ha): 0.0; Preemergence herbicidal rating IPOHE ([2]; rate 0.0313 kg/ha): 0.0; Preemergence herbicidal rating IPOHE ([2]; rate 0.0625 kg/ha): 0.0; Preemergence herbicidal rating IPOHE ([2]; rate 0.1250 kg/ha): 9.0; Preemergence herbicidal rating IPOHE ([2]; rate 0.2500 kg/ha): 9.0; Herbicidal rating CHEAL ([3]; rate 0.0156 kg/ha): 5.0; Herbicidal rating CHEAL ([3]; rate 0.0313 kg/ha): 9.0; Herbicidal rating CHEAL ([3]; rate 0.0625 kg/ha): 9.0; herbicidal effect rating, MOOVA (MOOVA (Monochoria); 0.0313 kg/ha): 6.0; herbicidal effect rating, MOOVA (MOOVA (Monochoria); 0.0625 kg/ha): 7.0; herbicidal effect rating, MOOVA (MOOVA (Monochoria); 0.1250 kg/ha): 9.0; herbicidal effect rating, MOOVA (MOOVA (Monochoria); 0.2500 kg/ha): 9.0; Preemergence herbicidal rating ABUTH (ABUTH (Velvetleaf); rate 0.0156 kg/ha): 0.0; Preemergence herbicidal rating ABUTH (ABUTH (Velvetleaf); rate 0.0313 kg/ha): 1.0; Preemergence herbicidal rating ABUTH (ABUTH (Velvetleaf); rate 0.0625 kg/ha): 9.0; Preemergence herbicidal rating ABUTH (ABUTH (Velvetleaf); rate 0.1250 kg/ha): 9.0; Preemergence herbicidal rating ABUTH (ABUTH (Velvetleaf); rate 0.2500 kg/ha): 9.0; Herbicidal rating CASOB (CASOB (Sicklepod) [4]; rate 0.0156 kg/ha): 3.0; Herbicidal rating CASOB (CASOB (Sicklepod) [4]; rate 0.0313 kg/ha): 4.0; Herbicidal rating CASOB (CASOB (Sicklepod) [4]; rate 0.0625 kg/ha): 4.0; Herbicidal rating AMBEL (AMBEL (Ragweed, Common) [5]; rate 0.0156 kg/ha): 9.0; Herbicidal rating AMBEL (AMBEL (Ragweed, Common) [5]; rate 0.0313 kg/ha): 9.0; Herbicidal rating AMBEL (AMBEL (Ragweed, Common) [5]; rate 0.0625 kg/ha): 9.0; Herbicidal rating TRZAWR ([6]; rate 0.0156 kg/ha): 3.0; Herbicidal rating TRZAWR ([6]; rate 0.0313 kg/ha): 3.5; Herbicidal rating TRZAWR ([6]; rate 0.0625 kg/ha): 3.5; Herbicidal rating GLXMAW ([7]; rate 0.0156 kg/ha): 5.0; Herbicidal rating GLXMAW ([7]; rate 0.0313 kg/ha): 5.0; Herbicidal rating GLXMAW ([7]; rate 0.0625 kg/ha): 6.0; Preemergence herbicidal rating ORYSAT (ORYSAT (Rice, Tebonnet); rate 0.0156 kg/ha): 0.0; Preemergence herbicidal rating ORYSAT (ORYSAT (Rice, Tebonnet); rate 0.0313 kg/ha): 0.0; Preemergence herbicidal rating ORYSAT (ORYSAT (Rice, Tebonnet); rate 0.0625 kg/ha): 1.0; Preemergence herbicidal rating ORYSAT (ORYSAT (Rice, Tebonnet); rate 0.1250 kg/ha): 1.0; Preemergence herbicidal rating ORYSAT (ORYSAT (Rice, Tebonnet); rate 0.2500 kg/ha): 3.0; herbicidal effect rating, SAGPY ([8]; 0.0313 kg/ha): 0.0; herbicidal effect rating, SAGPY ([8]; 0.0625 kg/ha): 0.0; herbicidal effect rating, SAGPY ([8]; 0.1250 kg/ha): 2.0; herbicidal effect rating, SAGPY ([8]; 0.2500 kg/ha): 7.0; Preemergence herbicidal rating AMBEL (AMBEL (Ragweed, Common) [9]; rate 0.0156 kg/ha): 0.0; Preemergence herbicidal rating AMBEL (AMBEL (Ragweed, Common) [9]; rate 0.0313 kg/ha): 0.0; Preemergence herbicidal rating AMBEL (AMBEL (Ragweed, Common) [9]; rate 0.0625 kg/ha): 0.0; Preemergence herbicidal rating AMBEL (AMBEL (Ragweed, Common) [9]; rate 0.1250 kg/ha): 7.0; Preemergence herbicidal rating AMBEL (AMBEL (Ragweed, Common) [9]; rate 0.2500 kg/ha): 7.0; Preemergence herbicidal rating CHEAL ([10]; rate 0.0156 kg/ha): 4.0; Preemergence herbicidal rating CHEAL ([10]; rate 0.0313 kg/ha): 3.0; Preemergence herbicidal rating CHEAL ([10]; rate 0.0625 kg/ha): 9.0; Preemergence herbicidal rating CHEAL ([10]; rate 0.1250 kg/ha): 9.0; Preemergence herbicidal rating CHEAL ([10]; rate 0.2500 kg/ha): 9.0; Preemergence herbicidal rating GLXMAW ([11]; rate 0.0156 kg/ha): 0.0; Preemergence herbicidal rating GLXMAW ([11]; rate 0.0313 kg/ha): 0.0; Preemergence herbicidal rating GLXMAW ([11]; rate 0.0625 kg/ha): 2.0; Preemergence herbicidal rating GLXMAW ([11]; rate 0.1250 kg/ha): 2.0; Preemergence herbicidal rating GLXMAW ([11]; rate 0.2500 kg/ha): 4.0; Herbicidal rating ECHCG (ECHCG (Barnyardgrass); rate 0.0156 kg/ha): 1.0; Herbicidal rating ECHCG (ECHCG (Barnyardgrass); rate 0.0313 kg/ha): 2.0; Herbicidal rating ECHCG (ECHCG (Barnyardgrass); rate 0.0625 kg/ha): 3.0; Preemergence herbicidal rating CASOB (CASOB (Sicklepod) [12]; rate 0.0156 kg/ha): 1.0; Preemergence herbicidal rating CASOB (CASOB (Sicklepod) [12]; rate 0.0313 kg/ha): 1.0; Preemergence herbicidal rating CASOB (CASOB (Sicklepod) [12]; rate 0.0625 kg/ha): 1.0; Preemergence herbicidal rating CASOB (CASOB (Sicklepod) [12]; rate 0.1250 kg/ha): 7.0; Preemergence herbicidal rating CASOB (CASOB (Sicklepod) [12]; rate 0.2500 kg/ha): 8.0
